Reference: ChEMBL document CHEMBL3525983, “Pharmacokinetics, metabolism, and disposition of rivoglitazone, a novel peroxisome proliferator-activated receptor γ agonist, in rats and monkeys” (Drug Metab Dispos, 2011)

Experiments:
[1] = system: Rattus norvegicus; test: Drug level in F344/DuCrlCrlj rat plasma treated with [14C]rivoglitazone at 1 to 5 mg/kg, po administered as single dose via gavage by LC-MS/MS analysis; format: ADME, organism-based; parameters: dose 1-5 mg/kg, dosed compound name [14C]Rivoglitazone, route oral; conditions: in vivo
[2] = Retention time of the compound by LC-MS/MS analysis; format: physicochemical; parameters: dosed compound name [14C]Rivoglitazone
[3] = Drug excretion in F344/DuCrlCrlj rat urine treated with [14C]rivoglitazone at 1 mg/kg, po administered via gavage measured during 0 to 48 hrs by radio-HPLC analysis; format: ADME, organism-based; parameters: dose 1 mg/kg, dosed compound name [14C]Rivoglitazone, route oral; conditions: in vivo
[4] = Drug excretion in F344/DuCrlCrlj rat feces treated with [14C]rivoglitazone at 1 mg/kg, po administered via gavage measured during 0 to 48 hrs by radio-HPLC analysis; format: ADME, organism-based; parameters: dose 1 mg/kg, dosed compound name [14C]Rivoglitazone, route oral; conditions: in vivo
[5] = Drug excretion in F344/DuCrlCrlj rat bile treated with [14C]rivoglitazone at 1 mg/kg, po administered via gavage measured during 0 to 48 hrs by radio-HPLC analysis; format: ADME, organism-based; parameters: dose 1 mg/kg, dosed compound name [14C]Rivoglitazone, route oral; conditions: in vivo
[6] = Drug excretion in F344/DuCrlCrlj rat urine/feces treated with [14C]rivoglitazone at 1 mg/kg, po administered via gavage measured during 0 to 48 hrs by radio-HPLC analysis; format: ADME, organism-based; parameters: dose 1 mg/kg, dosed compound name [14C]Rivoglitazone, route oral; conditions: in vivo
[7] = Drug excretion in F344/DuCrlCrlj rat urine/bile treated with [14C]rivoglitazone at 1 mg/kg, po administered via gavage measured during 0 to 48 hrs by radio-HPLC analysis; format: ADME, organism-based; parameters: dose 1 mg/kg, dosed compound name [14C]Rivoglitazone, route oral; conditions: in vivo
[8] = system: Rattus norvegicus; test: Drug level in F344/DuCrlCrlj rat plasma treated with [14C]rivoglitazone assessed as ratio of molar basis AUC (0 to t) at 1 mg/kg, po administered via gavage by LC-MS/MS analysis; format: ADME, organism-based; parameters: dose 1 mg/kg, dosed compound name [14C]Rivoglitazone, route oral; conditions: in vivo
[9] = system: Rhesus monkey; test: Drug level in monkey plasma treated with [14C]rivoglitazone assessed as ratio of molar basis AUC (0 to t) at 1 mg/kg, po administered via gavage by LC-MS/MS analysis; format: ADME, organism-based, Macaca mulatta; parameters: dose 1 mg/kg, dosed compound name [14C]Rivoglitazone, route oral; conditions: in vivo

Compound recovery [1]: metabolite_detected | Retention_time [2]: 19 min | Compound recovery [3]: 10% | Compound recovery [4]: metabolite_not_detected | Compound recovery [5]: 23% | Compound recovery [6]: 10% | Compound recovery [7]: 33% | AUCmet/AUCp [8]: 23.4% | AUCmet/AUCp [9]: 0.64%
Structure (SMILES): Cn1c(COc2ccc(CC3SC(=O)NC3=O)cc2)nc2ccc(OS(=O)(=O)O)cc21 (centres undefined)
